These are literature values, as cited in patent US20210069213A1, “COMPOSITION AND METHOD OF TREATMENT FOR DRY A.M.D. (AGE RELATED MACULAR DEGENERATION)” (EYE CO PTY LTD, priority 2018, published 2021).

In one data set the target is T1, glucocorticoid receptor (Homo sapiens, UniProt P04150).
T1 sequence (P04150 1-777): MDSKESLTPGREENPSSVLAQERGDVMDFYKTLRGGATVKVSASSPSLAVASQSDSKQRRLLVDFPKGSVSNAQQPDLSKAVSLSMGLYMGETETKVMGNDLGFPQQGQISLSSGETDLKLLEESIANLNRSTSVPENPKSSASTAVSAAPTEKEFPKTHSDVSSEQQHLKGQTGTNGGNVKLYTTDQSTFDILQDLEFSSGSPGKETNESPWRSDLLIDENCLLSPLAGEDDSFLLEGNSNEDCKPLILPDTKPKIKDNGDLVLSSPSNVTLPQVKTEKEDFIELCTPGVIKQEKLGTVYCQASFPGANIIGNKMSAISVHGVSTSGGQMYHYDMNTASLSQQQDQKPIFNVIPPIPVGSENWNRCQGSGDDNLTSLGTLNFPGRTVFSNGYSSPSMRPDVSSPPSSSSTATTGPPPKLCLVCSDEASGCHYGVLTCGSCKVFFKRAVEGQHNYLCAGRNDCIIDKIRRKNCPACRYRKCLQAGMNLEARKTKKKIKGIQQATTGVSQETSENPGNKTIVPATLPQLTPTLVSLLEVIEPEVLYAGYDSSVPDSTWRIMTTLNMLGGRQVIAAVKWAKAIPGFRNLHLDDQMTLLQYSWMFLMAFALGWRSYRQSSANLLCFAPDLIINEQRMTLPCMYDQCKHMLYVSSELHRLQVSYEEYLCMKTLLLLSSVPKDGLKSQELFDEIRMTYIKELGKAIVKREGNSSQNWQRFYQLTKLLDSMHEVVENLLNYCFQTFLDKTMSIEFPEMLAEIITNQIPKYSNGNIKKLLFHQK
To be noted: cited from earlier work; for GR potency: Table 1, hydrocortisone (cortisol) = 1.

Data set [1] deals with T2, mineralocorticoid receptor (Homo sapiens, UniProt P08235).
T2 sequence (P08235 1-984): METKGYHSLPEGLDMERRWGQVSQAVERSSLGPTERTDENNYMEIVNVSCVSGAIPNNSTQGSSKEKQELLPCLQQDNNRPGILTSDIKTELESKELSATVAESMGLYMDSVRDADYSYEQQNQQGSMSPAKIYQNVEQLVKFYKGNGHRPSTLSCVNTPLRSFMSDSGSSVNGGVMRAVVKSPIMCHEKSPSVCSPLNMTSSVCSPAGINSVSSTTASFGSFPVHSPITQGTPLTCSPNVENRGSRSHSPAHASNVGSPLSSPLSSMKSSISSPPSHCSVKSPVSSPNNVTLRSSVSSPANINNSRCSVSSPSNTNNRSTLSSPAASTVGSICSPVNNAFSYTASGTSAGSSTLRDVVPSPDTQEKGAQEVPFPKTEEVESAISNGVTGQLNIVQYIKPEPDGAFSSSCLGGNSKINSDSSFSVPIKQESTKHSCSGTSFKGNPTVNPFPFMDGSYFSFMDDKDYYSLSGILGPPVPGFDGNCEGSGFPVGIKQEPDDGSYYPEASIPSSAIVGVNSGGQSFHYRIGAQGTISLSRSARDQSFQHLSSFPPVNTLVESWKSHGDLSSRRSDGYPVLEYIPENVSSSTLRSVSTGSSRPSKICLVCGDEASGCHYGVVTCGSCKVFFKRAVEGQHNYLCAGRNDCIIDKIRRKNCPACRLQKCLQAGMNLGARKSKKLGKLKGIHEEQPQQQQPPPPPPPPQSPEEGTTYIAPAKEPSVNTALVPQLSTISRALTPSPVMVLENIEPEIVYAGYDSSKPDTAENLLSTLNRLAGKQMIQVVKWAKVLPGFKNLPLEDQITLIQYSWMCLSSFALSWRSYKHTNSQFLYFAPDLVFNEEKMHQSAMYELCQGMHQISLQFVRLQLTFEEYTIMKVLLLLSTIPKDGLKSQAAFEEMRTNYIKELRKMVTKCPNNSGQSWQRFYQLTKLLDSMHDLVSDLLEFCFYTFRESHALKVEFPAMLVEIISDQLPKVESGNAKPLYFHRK
To be noted: Table 1; hydrocortisone (cortisol) = 1; cited from earlier work.

Data set [2] has as its system New Zealand albino rabbits. To be noted: cited from earlier work.

For the molecule `C[C@]12CCC(=O)C=C1CC[C@@H]1[C@@H]2[C@@H](O)C[C@]2(C=O)[C@@H](C(=O)CO)CC[C@@H]12` [Aldosterone], the GR potency on glucocorticoid receptor is listed as 0.3. In data set [1], the MR potency is given as 200-1000.

For the molecule `C[C@H]1C[C@H]2[C@@H]3CCC4=CC(=O)C=C[C@]4(C)[C@@]3(Cl)[C@@H](O)C[C@]2(C)[C@@]1(O)C(=O)CO` [Beclometasone], the “GR potency, given as dose equivalence” value at glucocorticoid receptor (equals 14 mg oral prednisone once/day) is listed as 8 puffs 4 times a day;.

Regarding `C[C@]12CCC(=O)C=C1CC[C@@H]1[C@@H]2C(=O)C[C@@]2(C)[C@H]1CC[C@]2(O)C(=O)CO` [Cortisone], on glucocorticoid receptor, the GR potency is recorded as 0.8. Besides, the MR potency in data set [1] was 0.8.

In the case of `CC(=O)OCC(=O)[C@H]1CC[C@H]2[C@@H]3CCC4=CC(=O)CC[C@]4(C)[C@H]3CC[C@]12C` [Deoxycorticosterone acetate], the GR potency on glucocorticoid receptor is listed as 0. In addition, in data set [1], the MR potency is reported as 20.

Take `C[C@]12CCC(=O)C=C1CC[C@@H]1[C@@H]2[C@@H](O)C[C@@]2(C)[C@H]1CC[C@]2(O)C(=O)CO` [Hydrocortisone]: the GR potency at glucocorticoid receptor is 1. Moreover, the MR potency in data set [1] is reported as 1.

With `C[C@]12C=CC(=O)C=C1CC[C@@H]1[C@@H]2[C@@H](O)C[C@@]2(C)[C@H]1CC[C@]2(O)C(=O)CO` [Prednisolone], the GR potency at glucocorticoid receptor is 4. Further, in data set [1], the MR potency was 0.8.

On to `C[C@]12C=CC(=O)C=C1CC[C@@H]1[C@@H]2C(=O)C[C@@]2(C)[C@H]1CC[C@]2(O)C(=O)CO` [Prednisone], for which the MR potency in data set [1] is listed as 0.8.

For `C[C@]12C=CC(=O)C=C1CC[C@H]1[C@@H]3C[C@@H](O)[C@](O)(C(=O)CO)[C@@]3(C)C[C@H](O)[C@@]12F` [Triamcinolone], on glucocorticoid receptor, the GR potency is listed as 5. Further, the MR potency in data set [1] was 0.

Take `C[C@]12CCC(=O)C=C1CC[C@H]1[C@@H]3CC[C@](O)(C(=O)CO)[C@@]3(C)C[C@H](O)[C@@]12F` [fludrocortisone, 9-alpha fluorohydrocortisone]: in data set [2] (intravitreal 2 mg, 1 mg, 400 μg/0.1 ml, two weeks after injection), the “ERG change in the other groups” value is reported as “no significant decrease in ERG”. The “intravitreal (vitreous) haemorrhage” value in data set [2] (intravitreal 4 mg/0.1 mL) is recorded as “one eye of this group had a vitreous hemorrhage”. Besides, the ERG change entry in data set [2] (intravitreal 4 mg/0.1 ml, two weeks after injection) is recorded as “One eye in the 4 mg/0.1 ml fludrocortisone group exhibited significant decreases in ERG”. Also, in data set [2] (rabbit, in vivo), the “signs of retinal toxicity on slit-lamp examination, indirect ophthalmoscopy, or light microscopy” value was “no signs of retinal toxicity”.
